Reference: patent publication US8192962B2, “Processes for detecting toxic substances” (Daikin Industries, Ltd., priority 2001, dated 2012)

System: Stress protein genes
Assay: DNA chip mRNA expression in yeast, stress protein genes (Table 6)
Type: cell-based, Saccharomyces cerevisiae S288C
How it was run: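 In this screen, yeast in logarithmic growth are challenged for two hours with a toxic substance at a non-lethal inhibitory concentration. Their mRNA, converted to Cy3- or Cy5-labeled cDNA, hybridizes at 65° C. to a chip spanning every yeast gene, and expression is expressed as a ratio to untreated cells.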

## CCCCCCCCCCCCOS(=O)(=O)[O-].[Na+] [(18), sodium lauryl sulfate]
Yeast gene YAL005C
  The level of expressed mRNA in the presence of chemical substance/The level of expressed mRNA in the absence of chemical substance: 0.5
Yeast gene YAL015C
  The level of expressed mRNA in the presence of chemical substance/The level of expressed mRNA in the absence of chemical substance: 1.2
Yeast gene YBL075C
  The level of expressed mRNA in the presence of chemical substance/The level of expressed mRNA in the absence of chemical substance: 0.7
Yeast gene YBL093C
  The level of expressed mRNA in the presence of chemical substance/The level of expressed mRNA in the absence of chemical substance: 1.3
Yeast gene YBR044C
  The level of expressed mRNA in the presence of chemical substance/The level of expressed mRNA in the absence of chemical substance: 1.3
Yeast gene YBR054W
  The level of expressed mRNA in the presence of chemical substance/The level of expressed mRNA in the absence of chemical substance: 0.7
Yeast gene YBR067C
  The level of expressed mRNA in the presence of chemical substance/The level of expressed mRNA in the absence of chemical substance: 0.4
Yeast gene YBR072W
  The level of expressed mRNA in the presence of chemical substance/The level of expressed mRNA in the absence of chemical substance: 2.2
Yeast gene YBR126C
  The level of expressed mRNA in the presence of chemical substance/The level of expressed mRNA in the absence of chemical substance: 1.3
Yeast gene YBR169C
  The level of expressed mRNA in the presence of chemical substance/The level of expressed mRNA in the absence of chemical substance: 1.6
Yeast gene YCL035C
  The level of expressed mRNA in the presence of chemical substance/The level of expressed mRNA in the absence of chemical substance: 4.2
Yeast gene YCR021C
  The level of expressed mRNA in the presence of chemical substance/The level of expressed mRNA in the absence of chemical substance: 0.8
Yeast gene YCR060W
  The level of expressed mRNA in the presence of chemical substance/The level of expressed mRNA in the absence of chemical substance: 1.7
Yeast gene YCR083W
  The level of expressed mRNA in the presence of chemical substance/The level of expressed mRNA in the absence of chemical substance: 1.3
Yeast gene YDL022W
  The level of expressed mRNA in the presence of chemical substance/The level of expressed mRNA in the absence of chemical substance: 1.4
Yeast gene YDL025C
  The level of expressed mRNA in the presence of chemical substance/The level of expressed mRNA in the absence of chemical substance: 1.4
Yeast gene YDR033W
  The level of expressed mRNA in the presence of chemical substance/The level of expressed mRNA in the absence of chemical substance: 1.0
Yeast gene YDR077W
  The level of expressed mRNA in the presence of chemical substance/The level of expressed mRNA in the absence of chemical substance: 1.1
Yeast gene YDR098C
  The level of expressed mRNA in the presence of chemical substance/The level of expressed mRNA in the absence of chemical substance: 1.2
Yeast gene YDR155C
  The level of expressed mRNA in the presence of chemical substance/The level of expressed mRNA in the absence of chemical substance: 2.5
Yeast gene YDR258C
  The level of expressed mRNA in the presence of chemical substance/The level of expressed mRNA in the absence of chemical substance: 1.3
Yeast gene YDR293C
  The level of expressed mRNA in the presence of chemical substance/The level of expressed mRNA in the absence of chemical substance: 1.3
Yeast gene YDR436W
  The level of expressed mRNA in the presence of chemical substance/The level of expressed mRNA in the absence of chemical substance: 1.2
Yeast gene YDR513W
  The level of expressed mRNA in the presence of chemical substance/The level of expressed mRNA in the absence of chemical substance: 3.2
Yeast gene YDR519W
  The level of expressed mRNA in the presence of chemical substance/The level of expressed mRNA in the absence of chemical substance: 2.4
Yeast gene YEL030W
  The level of expressed mRNA in the presence of chemical substance/The level of expressed mRNA in the absence of chemical substance: 0.6
Yeast gene YEL039C
  The level of expressed mRNA in the presence of chemical substance/The level of expressed mRNA in the absence of chemical substance: 1.1
Yeast gene YER042W
  The level of expressed mRNA in the presence of chemical substance/The level of expressed mRNA in the absence of chemical substance: 1.1
Yeast gene YER057C
  The level of expressed mRNA in the presence of chemical substance/The level of expressed mRNA in the absence of chemical substance: 1.8
Yeast gene YER103W
  The level of expressed mRNA in the presence of chemical substance/The level of expressed mRNA in the absence of chemical substance: 0.6
Yeast gene YER125W
  The level of expressed mRNA in the presence of chemical substance/The level of expressed mRNA in the absence of chemical substance: 1.0
Yeast gene YFL014W
  The level of expressed mRNA in the presence of chemical substance/The level of expressed mRNA in the absence of chemical substance: 8.8
Yeast gene YFL016C
  The level of expressed mRNA in the presence of chemical substance/The level of expressed mRNA in the absence of chemical substance: 0.9
Yeast gene YFL020C
  The level of expressed mRNA in the presence of chemical substance/The level of expressed mRNA in the absence of chemical substance: 0.9
Yeast gene YFR052W
  The level of expressed mRNA in the presence of chemical substance/The level of expressed mRNA in the absence of chemical substance: 1.9
Yeast gene YGL073W
  The level of expressed mRNA in the presence of chemical substance/The level of expressed mRNA in the absence of chemical substance: 1.2
Yeast gene YGL115W
  The level of expressed mRNA in the presence of chemical substance/The level of expressed mRNA in the absence of chemical substance: 1.2
Yeast gene YGL181W
  The level of expressed mRNA in the presence of chemical substance/The level of expressed mRNA in the absence of chemical substance: 1.3
Yeast gene YGR088W
  The level of expressed mRNA in the presence of chemical substance/The level of expressed mRNA in the absence of chemical substance: 2.0
Yeast gene YHL028W
  The level of expressed mRNA in the presence of chemical substance/The level of expressed mRNA in the absence of chemical substance: 2.5
Yeast gene YHL046C
  The level of expressed mRNA in the presence of chemical substance/The level of expressed mRNA in the absence of chemical substance: 0.9
Yeast gene YHR030C
  The level of expressed mRNA in the presence of chemical substance/The level of expressed mRNA in the absence of chemical substance: 1.8
Yeast gene YHR057C
  The level of expressed mRNA in the presence of chemical substance/The level of expressed mRNA in the absence of chemical substance: 1.3
Yeast gene YHR104W
  The level of expressed mRNA in the presence of chemical substance/The level of expressed mRNA in the absence of chemical substance: 1.9
Yeast gene YIL011W
  The level of expressed mRNA in the presence of chemical substance/The level of expressed mRNA in the absence of chemical substance: 0.8
Yeast gene YIL033C
  The level of expressed mRNA in the presence of chemical substance/The level of expressed mRNA in the absence of chemical substance: 1.2
Yeast gene YIR037W
  The level of expressed mRNA in the presence of chemical substance/The level of expressed mRNA in the absence of chemical substance: 2.9
Yeast gene YIR038C
  The level of expressed mRNA in the presence of chemical substance/The level of expressed mRNA in the absence of chemical substance: 2.0
Yeast gene YJL128C
  The level of expressed mRNA in the presence of chemical substance/The level of expressed mRNA in the absence of chemical substance: 1.0
Yeast gene YJL158C
  The level of expressed mRNA in the presence of chemical substance/The level of expressed mRNA in the absence of chemical substance: 1.4
Yeast gene YJL159W
  The level of expressed mRNA in the presence of chemical substance/The level of expressed mRNA in the absence of chemical substance: 0.9
Yeast gene YJL165C
  The level of expressed mRNA in the presence of chemical substance/The level of expressed mRNA in the absence of chemical substance: 1.8
Yeast gene YJR045C
  The level of expressed mRNA in the presence of chemical substance/The level of expressed mRNA in the absence of chemical substance: 0.9
Yeast gene YJR090C
  The level of expressed mRNA in the presence of chemical substance/The level of expressed mRNA in the absence of chemical substance: 1.0
Yeast gene YKL161C
  The level of expressed mRNA in the presence of chemical substance/The level of expressed mRNA in the absence of chemical substance: 1.9
Yeast gene YKL163W
  The level of expressed mRNA in the presence of chemical substance/The level of expressed mRNA in the absence of chemical substance: 1.0
Yeast gene YKL164C
  The level of expressed mRNA in the presence of chemical substance/The level of expressed mRNA in the absence of chemical substance: 0.8
Yeast gene YKL210W
  The level of expressed mRNA in the presence of chemical substance/The level of expressed mRNA in the absence of chemical substance: 1.1
Yeast gene YKR053C
  The level of expressed mRNA in the presence of chemical substance/The level of expressed mRNA in the absence of chemical substance: 2.4
Yeast gene YLL024C
  The level of expressed mRNA in the presence of chemical substance/The level of expressed mRNA in the absence of chemical substance: 0.6
Yeast gene YLL026W
  The level of expressed mRNA in the presence of chemical substance/The level of expressed mRNA in the absence of chemical substance: 2.5
Yeast gene YLL039C
  The level of expressed mRNA in the presence of chemical substance/The level of expressed mRNA in the absence of chemical substance: 2.1
Yeast gene YLL060C
  The level of expressed mRNA in the presence of chemical substance/The level of expressed mRNA in the absence of chemical substance: 2.3
Yeast gene YLR006C
  The level of expressed mRNA in the presence of chemical substance/The level of expressed mRNA in the absence of chemical substance: 1.0
Yeast gene YLR109W
  The level of expressed mRNA in the presence of chemical substance/The level of expressed mRNA in the absence of chemical substance: 1.2
Yeast gene YLR259C
  The level of expressed mRNA in the presence of chemical substance/The level of expressed mRNA in the absence of chemical substance: 1.0
Yeast gene YML007W
  The level of expressed mRNA in the presence of chemical substance/The level of expressed mRNA in the absence of chemical substance: 1.4
Yeast gene YML070W
  The level of expressed mRNA in the presence of chemical substance/The level of expressed mRNA in the absence of chemical substance: 1.3
Yeast gene YMR021C
  The level of expressed mRNA in the presence of chemical substance/The level of expressed mRNA in the absence of chemical substance: 3.4
Yeast gene YMR173W
  The level of expressed mRNA in the presence of chemical substance/The level of expressed mRNA in the absence of chemical substance: 1.8
Yeast gene YMR186W
  The level of expressed mRNA in the presence of chemical substance/The level of expressed mRNA in the absence of chemical substance: 1.1
Yeast gene YNL064C
  The level of expressed mRNA in the presence of chemical substance/The level of expressed mRNA in the absence of chemical substance: 0.7
Yeast gene YNL160W
  The level of expressed mRNA in the presence of chemical substance/The level of expressed mRNA in the absence of chemical substance: 1.0
Yeast gene YNL241C
  The level of expressed mRNA in the presence of chemical substance/The level of expressed mRNA in the absence of chemical substance: 1.0
Yeast gene YNR076W
  The level of expressed mRNA in the presence of chemical substance/The level of expressed mRNA in the absence of chemical substance: 0.8
Yeast gene YOL064C
  The level of expressed mRNA in the presence of chemical substance/The level of expressed mRNA in the absence of chemical substance: 1.3
Yeast gene YOL161C
  The level of expressed mRNA in the presence of chemical substance/The level of expressed mRNA in the absence of chemical substance: 1.0
Yeast gene YOR008C
  The level of expressed mRNA in the presence of chemical substance/The level of expressed mRNA in the absence of chemical substance: 1.3
Yeast gene YOR009W
  The level of expressed mRNA in the presence of chemical substance/The level of expressed mRNA in the absence of chemical substance: 0.8
Yeast gene YOR010C
  The level of expressed mRNA in the presence of chemical substance/The level of expressed mRNA in the absence of chemical substance: 0.6
Yeast gene YOR027W
  The level of expressed mRNA in the presence of chemical substance/The level of expressed mRNA in the absence of chemical substance: 0.8
Yeast gene YOR208W
  The level of expressed mRNA in the presence of chemical substance/The level of expressed mRNA in the absence of chemical substance: 1.6
Yeast gene YPL059W
  The level of expressed mRNA in the presence of chemical substance/The level of expressed mRNA in the absence of chemical substance: 1.3
Yeast gene YPL106C
  The level of expressed mRNA in the presence of chemical substance/The level of expressed mRNA in the absence of chemical substance: 0.5
Yeast gene YPL140C
  The level of expressed mRNA in the presence of chemical substance/The level of expressed mRNA in the absence of chemical substance: 1.4
Yeast gene YPL194W
  The level of expressed mRNA in the presence of chemical substance/The level of expressed mRNA in the absence of chemical substance: 0.8
Yeast gene YPL223C
  The level of expressed mRNA in the presence of chemical substance/The level of expressed mRNA in the absence of chemical substance: 1.3
Yeast gene YPL240C
  The level of expressed mRNA in the presence of chemical substance/The level of expressed mRNA in the absence of chemical substance: 1.0
Yeast gene YPR005C
  The level of expressed mRNA in the presence of chemical substance/The level of expressed mRNA in the absence of chemical substance: 1.1
Yeast gene YPR026W
  The level of expressed mRNA in the presence of chemical substance/The level of expressed mRNA in the absence of chemical substance: 1.3
